Reference: paper PMC8515607 (ACS Omega, 2021)
Several values for one entry are separate records, joined by “and”; a condition that tells them apart may be missing. Equal entries are not always repeated. Where two headings read alike, the source gives them in different places.

What was measured:
[1] = tested on: A549; test: cells; type: cell-based, human; details: for A549 SI: selectivity index = IC50 BALB/3T3 / IC50 A549
Text: (§1) The A549 and MCF7 cell lines were purchased from the European Collection of Authenticated Cell Cultures (ECACC, Salisbury, U.K., 86012804 and 86012803). The LoVo cell line was purchased from the American Type Culture Collection (CCL-229, ATCC, Manassas, VA), and LoVo/DX by courtesy of Prof. E. Borowski (Technical University of Gdańsk, Gdańsk, Poland). The BALB/3T3 cell line was purchased from the American Type Culture Collection (CCL-163, ATCC, Manassas, VA). All of the cell lines are maintained in the Institute of Immunology and Experimental Therapy (IIET), Wroclaw, Poland.
(§2) A549 cells were cultured in a mixture of OptiMEM and Roswell Park Memorial Institute (RPMI) 1640 (1:1) medium (IIET, Wroclaw, Poland), supplemented with 10% fetal bovine serum HyClone (GE Healthcare) and 2 mM L-glutamine (Sigma-Aldrich, Germany). MCF7 cells were cultured in a mixture of Eagle’s medium (IIET, Wroclaw, Poland), supplemented with 10% fetal bovine serum, 2 mM L-glutamine, and insulin (Sigma-Aldrich, Germany). LoVo and LoVo/DX cells were cultured in F12K medium (Corning), supplemented with 10% fetal bovine serum HyClone (GE Healthcare) and 0.1 μg/mL doxorubicin (Accord) for LoVo/DX. BALB/3T3 fibroblasts were cultured in Dulbecco’s medium (Gibco), supplemented with 10% fetal bovine serum (GE Healthcare) and 2 mM L-glutamine (Sigma-Aldrich, Germany). All culture media contained antibiotics: 100 U/mL penicillin (Polfa-Tarchomin, Poland) and 0.1 mg/mL streptomycin (Sigma-Aldrich, Germany). All cell lines were cultured during entire experiment in humid atmosphere at 37 °C and 5% CO2.
(§3) All cell lines were exposed to each tested agent at different concentrations in the range 100–0.00001 μg/mL for 72 h. The cells were also exposed to the reference drug cisplatin (Teva Pharmaceuticals, Poland) and doxorubicin (Accord Healthcare Limited, U.K.). Additionally, all cell lines were exposed to dimethyl sulfoxide (DMSO) (solvent used for tested compounds) (POCh, Poland) at concentrations corresponding to those present in tested agents dilutions. After 72 h, sulforhodamine B (SRB) assay was performed.[57]
(§4) After 72 h of incubation with the tested compounds, the cells were fixed in situ by gently adding cold 50% trichloroacetic acid (TCA) (POCh, Poland) and were incubated at room temperature for 1 h. Then, the wells were washed four times with water and air-dried. Next, 0.1% solution of sulforhodamine B (Sigma-Aldrich, Germany) in 1% acetic acid (POCh, Poland) was added to each well and the plates were incubated at room temperature for 0.5 h. After incubation time, unbound dye was removed by washing plates four times with 1% acetic acid, whereas stain bound to cells was solubilized with 10 mM Tris base (Sigma-Aldrich, Germany). Absorbance of each solution was read at Synergy H4 Hybrid Multi-Mode Microplate Reader (BioTek Instruments) at the 540 nm wavelength.
(§5) IC50 values were calculated in Excel sheet using formulas adapted by Mateusz Psurski fromCheburator 0.4, Dmitry Nevozhay software (version 1.2.0 software by Dmitry Nevozhay, 2004–2014, http://www.cheburator.nevozhay.com, freely available) for each experiment.[58] Compounds at each concentration were tested in triplicate in a single experiment, and each experiment was repeated at least three times independently.

[2] = tested on: LoVo/DX; test: cells; type: cell-based, human; details: for LoVo/DX RI: resistance index = IC50 LoVo/DX / IC50 LoVo; for LoVo/DX SI: selectivity index = IC50 BALB/3T3 / IC50 LoVo/DX
Text: as §1, §2, §3, §4, §5

[3] = tested on: LoVo; test: cells; type: cell-based, human; details: for LoVo SI: selectivity index = IC50 BALB/3T3 / IC50 LoVo
Text: as §1, §2, §3, §4, §5

[4] = tested on: MCF-7; test: cells; type: cell-based, human; details: for MCF-7 SI: selectivity index = IC50 BALB/3T3 / IC50 MCF-7
Text: as §1, §2, §3, §4, §5

[5] = tested on: BALB/3T3; test: In vitro antiproliferative activity, SRB assay, normal fibroblasts BALB/3T3; type: cell-based; details: 72 h, mean ± SD
Text: as §1, §2, §3, §4, §5

[6] = tested on: A549, MCF-7, and LoVo cells; test: Antiproliferative activity, values quoted jointly for three tumor lines; type: cell-based, human; details: Homo sapiens; summary of Table 1; read-out: IC50 against A549, MCF-7, and LoVo cells (span over the three lines)
Text: as §1, §2, §3, §4, §5

[7] = Homo sapiens, A549, 72 h, read-out: A549 IC50 (nM), 72 h exposure, SRB, mean ± SD
[8] = Homo sapiens, LoVo/DX, 72 h, read-out: LoVo/DX IC50 (nM), 72 h exposure, SRB, mean ± SD
[9] = Homo sapiens, LoVo, 72 h, read-out: LoVo IC50 (nM)
[10] = Homo sapiens, MCF7, 72 h, read-out: MCF-7 IC50 (nM)
[11] = Mus musculus, BALB/3T3, normal murine embryonic fibroblasts

SMILES | IC50 [1, 7] [nM] | A549 SI [1] | IC50 [2, 8] [nM] | LoVo/DX RI [2] | LoVo/DX SI [2] | IC50 [3, 9] [nM] | LoVo SI [3] | IC50 [4, 10] [nM] | MCF-7 SI [4] | IC50 [5, 11] [nM] | also measured
CNc1ccc2c(cc1=O)[C@@H](n1ccnn1)CCc1cc(OC)c(OC)c(OC)c1-2 [Compound 5] | 6.1 ± 1.1 | 1.8 | 55 ± 20 | 9.8 | 0.2 | 5.6 ± 0.6 | 2.0 | 5.6 ± 1 | 2.0 | 11 ± 2.2 | IC50 [6]: 3.1 to 6.4 nM
CCCCc1cn([C@H]2CCc3cc(OC)c(OC)c(OC)c3-c3ccc(NC)c(=O)cc32)nn1 [Compound 7] | 6.4 ± 3.9 | 1.5 | < 30 | 7.4 | 0.4 | 3.1 ± 1.3 | 3.2 | 5.4 ± 3.7 | 1.8 | 9.9 ± 3.7 | IC50 ([2]; read-out: LoVo/DX IC50, 72 h exposure, SRB, mean ± SD): 23 ± 11 nM; IC50 [6]: 3.1 to 6.4 nM
CNc1ccc2c(cc1=O)[C@@H](n1cc(CN)nn1)CCc1cc(OC)c(OC)c(OC)c1-2 [Compound 8] | 70 ± 23 | 5.7 | 12000 ± 2400 | 86 | <0.1 | 140 ± 56 | 2.9 | 34 ± 16 | 11.8 | 400 ± 37 | IC50 [6]: 30 to 140 nM
CCOC(=O)c1nnn([C@H]2CCc3cc(OC)c(OC)c(OC)c3-c3ccc(NC)c(=O)cc32)c1C(=O)OCC [Compound 22] | 72 ± 27 | 1.5 | 580 ± 120 | 6.0 | 0.2 | 97 ± 24 | 1.1 | 93 ± 43 | 1.2 |  | IC50 [6]: 70 to 100 nM
CNc1ccc2c(cc1=O)[C@@H](n1cc(COC(=O)c3ccncc3)nn1)CCc1cc(OC)c(OC)c(OC)c1-2 [Compound 28] | 9.5 ± 2.9 | 1.3 | 1000 ± 94 | 130 | <0.1 | 7.9 ± 3.3 | 1.5 | 3.9 ± 1.1 | 3.1 | 12 ± 1.1 | 
CNc1ccc2c(cc1=O)[C@@H](n1cc(CNC(=O)C(C)C)nn1)CCc1cc(OC)c(OC)c(OC)c1-2 [Compound 29] | 12 ± 2.4 | 4.0 | 2700 ± 600 | 190 | <0.1 | 14 ± 2.3 | 3.4 | 12 ± 3.2 | 4.0 | 48 ± 14 | 
CCCCCCCCCCCCCCCC(=O)NCc1cn([C@H]2CCc3cc(OC)c(OC)c(OC)c3-c3ccc(NC)c(=O)cc32)nn1 [Compound 30] | 16 ± 7.3 | 18.1 | 7300 ± 1100 | 24 | <0.1 | 300 ± 94 | 1.0 | 9.3 ± 2.4 | 31.2 | 290 ± 49 | 
CNc1ccc2c(cc1=O)[C@@H](n1cc(CNC(=O)CCC(F)(F)F)nn1)CCc1cc(OC)c(OC)c(OC)c1-2 [Compound 33] | 11 ± 0.1 | 2.5 | 3000 ± 800 | 270 | <0.1 | 11 ± 5.5 | 2.5 | 9.7 ± 3.4 | 2.8 | 27 ± 8.7 | 
CNc1ccc2c(cc1=O)[C@@H](n1cc(CNC(=O)CCNC(=O)OC(C)(C)C)nn1)CCc1cc(OC)c(OC)c(OC)c1-2 [Compound 34] | 26 ± 11 | 10.4 | 17000 ± 1600 | 510 | <0.1 | 33 ± 10 | 8.2 | 10 ± 2.1 | 27.0 | 270 ± 67 | 
CNc1ccc2c(cc1=O)[C@@H](n1cc(CNC(=O)c3ccncc3)nn1)CCc1cc(OC)c(OC)c(OC)c1-2 [Compound 36] | 22 ± 7.4 | 3.4 | 9100 ± 790 | 700 | <0.1 | 13 ± 3.4 | 5.7 | 12 ± 1.4 | 6.3 and 6.2 | 74 ± 22 | 
CNc1ccc2c(cc1=O)[C@@H](n1cc(CNC(=O)OC)nn1)CCc1cc(OC)c(OC)c(OC)c1-2 [Compound 37] | 7.2 ± 0.7 | 1.9 | 1500 ± 240 | 180 | <0.1 | 8.5 ± 2.3 | 1.6 | 4.7 ± 0.5 | 3.0 | 14 ± 2.4 | 
CCOC(=O)NCc1cn([C@H]2CCc3cc(OC)c(OC)c(OC)c3-c3ccc(NC)c(=O)cc32)nn1 [Compound 38] | 4.8 ± 0.7 | 2.5 | 840 ± 95 | 110 | <0.1 | 7.7 ± 2.9 | 1.6 | 4.2 ± 0.7 | 2.9 | 12 ± 1.6 | 
CNc1ccc2c(cc1=O)[C@@H](n1cc(CNC(=O)OC(C)(C)C)nn1)CCc1cc(OC)c(OC)c(OC)c1-2 [Compound 41] | 5.4 ± 1.5 | 2.0 | 570 ± 120 | 110 | <0.1 | 5.1 ± 0.3 | 2.2 | 3.2 ± 0.6 | 3.4 | 11 ± 0.8 | 
CNc1ccc2c(cc1=O)[C@@H](n1cc(CNC(=O)OCC(Cl)(Cl)Cl)nn1)CCc1cc(OC)c(OC)c(OC)c1-2 [Compound 42] | 1.2 to 1.9 | 1.4 | 470 ± 300 | 120 | <0.1 | 3.8 ± 4.2 | 0.7 | 2.5 ± 1.8 | 1.1 | 2.7 ± 2.4 | IC50 ([1]; read-out: A549 IC50, 72 h exposure, SRB, mean ± SD): 1.9 ± 2.9 nM
N.N.[Cl][Pt][Cl] [cisplatin, reference compound] |  | 0.9 |  | 0.7 | 1.1 |  | 0.8 |  | 0.8 |  | IC50 ([1]; 72 h exposure, SRB, mean ± SD, read-out: A549 IC50): 3500 ± 630 nM; IC50 ([2]; 72 h exposure, SRB, mean ± SD, read-out: LoVo/DX IC50): 3000 ± 800 nM; IC50 ([3]; 72 h exposure, SRB, mean ± SD, read-out: LoVo IC50): 4100 ± 860 nM; IC50 ([4]; 72 h exposure, SRB, mean ± SD, read-out: MCF-7 IC50): 4400 ± 1200 nM; IC50 ([5]; normal murine embryonic fibroblasts): 3300 ± 970 nM
COc1cccc2c1C(=O)c1c(O)c3c(c(O)c1C2=O)C[C@@](O)(C(=O)CO)C[C@@H]3O[C@H]1C[C@H](N)[C@H](O)[C@H](C)O1 [doxorubicin, reference compound] |  | 0.1 |  | 110 | <0.1 |  | 0.2 |  | 0.1 | 12 ± 2.3 | IC50 ([1]; Homo sapiens, A549, 72 h exposure, SRB, mean ± SD, read-out: A549 IC50): 120 ± 100 nM; IC50 ([2]; Homo sapiens, LoVo/DX, 72 h exposure, SRB, mean ± SD, read-out: LoVo/DX IC50): 5800 ± 2200 nM; IC50 ([3]; Homo sapiens, LoVo, 72 h exposure, SRB, mean ± SD, read-out: LoVo IC50): 52 ± 13 nM; IC50 ([4]; Homo sapiens, MCF7, 72 h exposure, SRB, mean ± SD, read-out: MCF-7 IC50): 82 ± 31 nM
